Experimental data: ChEMBL document CHEMBL5223186, “Agrochemical Lessons for Infectious Disease Research: New Resistance Breaking Antifungal Hits against Candida auris” (ACS Med Chem Lett, 2023)
≈ marks a conversion by molar mass, not a printed value.

Experiments:
[Candida] auris [1] = Antifungal activity against Candida auris CDC0385 assessed as growth inhibition; format: functional, organism-based; conditions: Candidozyma auris
[2] = Cytotoxicity against human HepG2 cells assessed as growth inhibition by XTT assay; format: toxicity, cell-based
[Candida] auris [3] = Antifungal activity against Candida auris CDC0385 assessed as lowest compound concentration required to inhibit 50 % growth; format: functional, Candidozyma auris
[Candida] auris [4] = Antifungal activity against Candida auris CDC0381 assessed as growth inhibition; format: functional, organism-based; conditions: Candidozyma auris
[Candida] auris [5] = Antifungal activity against Candida auris ATCC 6258 assessed as lowest compound concentration required to inhibit 50 % growth; format: functional, Candidozyma auris
[Candida] auris [6] = Antifungal activity against Candida auris ATCC 6258 assessed as lowest compound concentration required to inhibit 90 % growth; format: functional, Candidozyma auris
[Candida] auris [7] = Antifungal activity against Candida auris CDC0381 assessed as lowest compound concentration required to inhibit 90 % growth; format: functional, Candidozyma auris
[Candida] auris [8] = Antifungal activity against Candida auris CDC0385 assessed as lowest compound concentration required to inhibit 90 % growth; format: functional, Candidozyma auris
[Candida] auris [9] = Antifungal activity against Candida auris CDC0381 assessed as lowest compound concentration required to inhibit 50 % growth; format: functional, Candidozyma auris
[Candida] auris [10] = Antifungal activity against Candida auris ATCC 6258 assessed as growth inhibition; format: functional, organism-based; conditions: Candidozyma auris
[11] = Selectivity index, ratio of IC50 for cytotoxicity against human HepG2 cells to IC50 for antifungal activity against Candida auris CDC0385; format: toxicity, cell-based; conditions: read-out: Ratio IC50

Compound | IC50 ([Candida] auris [1]) | IC90 ([Candida] auris [1]) | IC50 [2] | INH ([Candida] auris [3]) | IC50 ([Candida] auris [4]) | IC90 ([Candida] auris [4]) | INH ([Candida] auris [5]) | INH ([Candida] auris [6]) | INH ([Candida] auris [7]) | INH ([Candida] auris [8]) | INH ([Candida] auris [9]) | IC50 ([Candida] auris [10]) | IC90 ([Candida] auris [10]) | selectivity ratio [11]
Fc1ccc2[nH]cc(-c3ccsc3Br)c2c1 | 29.3 µg/mL (≈ 98.9 µM) | > 64 µg/mL | > 100 µM | 32 µg/mL | 9.85 µg/mL (≈ 33.3 µM) | 15.7 µg/mL (≈ 53 µM) | 64 µg/mL | >64 µg/mL | 16 µg/mL | >64 µg/mL | 16 µg/mL | 32.2 µg/mL (≈ 109 µM) | > 64 µg/mL | > 3.41
NC1CCCc2ccc(C3=NSC(c4cc(Cl)c(F)c(Cl)c4)(C(F)(F)F)C3)cc21 (stereo not given) | 2.09 µg/mL (≈ 4.51 µM) | 2.3 µg/mL (≈ 4.96 µM) | 13.2 µM | 4 µg/mL | 1.43 µg/mL (≈ 3.09 µM) | 1.71 µg/mL (≈ 3.69 µM) | 4 µg/mL | 4 µg/mL | 2 µg/mL | 4 µg/mL | 2 µg/mL | 2.11 µg/mL (≈ 4.55 µM) | 2.62 µg/mL (≈ 5.65 µM) | 6.29
Clc1cc2c(c3ncccc13)OCN(CCc1ccccc1)C2 | 2.14 µg/mL (≈ 6.59 µM) | 3.88 µg/mL (≈ 11.9 µM) | 22.7 µM | 4 µg/mL | 2 µg/mL (≈ 6.16 µM) | 2.13 µg/mL (≈ 6.56 µM) | 2 µg/mL | 4 µg/mL | 4 µg/mL | 4 µg/mL | 4 µg/mL | 1.98 µg/mL (≈ 6.1 µM) | 2.2 µg/mL (≈ 6.77 µM) | 10.6
Cc1cc(Nc2ccccc2C)n(-c2nc(=O)cc(C)[nH]2)n1 | 1.45 µg/mL (≈ 4.91 µM) | 6.05 µg/mL (≈ 20.5 µM) | > 100 µM | 2 µg/mL | 0.85 µg/mL (≈ 2.88 µM) | 1.93 µg/mL (≈ 6.53 µM) | 2 µg/mL | 4 µg/mL | 4 µg/mL | 8 µg/mL | 1 µg/mL | 1.42 µg/mL (≈ 4.81 µM) | 2.38 µg/mL (≈ 8.06 µM) | > 69
CCCCCn1nc(-c2ccc(Cl)cc2)cnc1=O | 1.8 µg/mL (≈ 6.48 µM) | 3.64 µg/mL (≈ 13.1 µM) | 2.07 µM | 2 µg/mL | 0.72 µg/mL (≈ 2.59 µM) | 1.59 µg/mL (≈ 5.72 µM) | 1 µg/mL | 2 µg/mL | 4 µg/mL | 4 µg/mL | 1 µg/mL | 0.76 µg/mL (≈ 2.74 µM) | 1.05 µg/mL (≈ 3.78 µM) | 1.5
COCc1ncnc(NC(C)CC#Cc2ccc(Oc3ccc(C(F)(F)F)cn3)cc2)c1OC (stereo not given) | 0.45 µg/mL (≈ 0.952 µM) | 4.61 µg/mL (≈ 9.76 µM) | > 100 µM | 0.5 µg/mL | – | – | >64 µg/mL | >64 µg/mL | 1 µg/mL | 8 µg/mL | <0.125 µg/mL | – | – | > 222
C[C@@H]1[C@H](O)[C@@H](C)/C=C/C=C/C=C/C=C/C=C/C=C/C=C/[C@H](O[C@@H]2O[C@H](C)[C@@H](O)[C@H](N)[C@@H]2O)C[C@@H]2O[C@](O)(C[C@@H](O)C[C@@H](O)[C@H](O)CC[C@@H](O)C[C@@H](O)CC(=O)O[C@H]1C)C[C@H](O)[C@H]2C(=O)O [AMPHOTERICIN B] | 0.54 µg/mL (≈ 0.584 µM) | 0.83 µg/mL (≈ 0.898 µM) | – | 1 µg/mL | 0.2 µg/mL (≈ 0.216 µM) | 0.39 µg/mL (≈ 0.422 µM) | 0.5 µg/mL | 1 µg/mL | 0.5 µg/mL | 1 µg/mL | 0.25 µg/mL | 0.49 µg/mL (≈ 0.53 µM) | 0.54 µg/mL (≈ 0.584 µM) | –
C1CCC(C(CC2CCCCN2)C2CCCCC2)CC1 (stereo not given) [PERHEXILINE] | – | – | 11.3 µM | – | – | – | – | – | – | – | – | – | – | –
C[C@@H](c1ncncc1F)[C@](O)(Cn1cncn1)c1ccc(F)cc1F [VORICONAZOLE] | 2.94 µg/mL (≈ 8.42 µM) | > 4 µg/mL | – | 4 µg/mL | 0.01 µg/mL (≈ 0.0286 µM) | 0.55 µg/mL (≈ 1.57 µM) | 0.25 µg/mL | 1 µg/mL | 4 µg/mL | >4 µg/mL | 0.016 µg/mL | 0.2 µg/mL (≈ 0.573 µM) | 0.76 µg/mL (≈ 2.18 µM) | –
